Holding throughout (type): cell-based
For one assay, the system named is GIST-T1/816. Kind of assay: Cancer cell proliferation inhibition, cell viability after 72 hours. The following applies: Homo sapiens, GISTT1, imatinib-resistant. The essentials:
(§1)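 GIST-T1/816, GIST-430 and GIST-430/654 seeded at 2×10^4/100 μl; GIST-R3 (patient-derived, imatinib/sunitinib-resistant) likewise. Compounds added next day at 8 concentrations; viability after 72 hours by EZ-cytox or CellTiter-Glo, as % of vehicle-treated cells, IC50 from curves; two independent experiments.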

The next assay relates to GIST430/654. Described as above. The conditions noted are these: GIST-430/654, imatinib-resistant. The essentials: as §1
For the next assay, the system named is GIST-T1. The assay is described as above. The conditions noted are these: Homo sapiens, GISTT1, imatinib-sensitive.
A further assay deals with GIST430. The description is as above. The following applies: Homo sapiens, imatinib-sensitive. The essentials:
as §1

The subject of a further assay is M-NFS-60. Kind of assay: Cancer cell proliferation inhibition, CCK-8, 72 hours. An outline of the steps:
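Cells were grown in RPMI with 10% FBS, 0.05 mM 2-mercaptoethanol and human M-CSF, and seeded at 20000 cells/well. Compounds were added from a 3-fold DMSO dilution series topping at 1968 nM (dilution-plate concentration; 11 points including DMSO control). After 72 h at 37 °C, CCK-8 was added for 2 h and OD450 read.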

The target of another assay is T1, Ret^wt (Ba/F3) (Homo sapiens, UniProt P07949).
T1 construct: candidates are KIF5B, CCDC6, TEL (ETV6), or none (full-length RET)
T1 sequence (P07949 whole entry, change not shown): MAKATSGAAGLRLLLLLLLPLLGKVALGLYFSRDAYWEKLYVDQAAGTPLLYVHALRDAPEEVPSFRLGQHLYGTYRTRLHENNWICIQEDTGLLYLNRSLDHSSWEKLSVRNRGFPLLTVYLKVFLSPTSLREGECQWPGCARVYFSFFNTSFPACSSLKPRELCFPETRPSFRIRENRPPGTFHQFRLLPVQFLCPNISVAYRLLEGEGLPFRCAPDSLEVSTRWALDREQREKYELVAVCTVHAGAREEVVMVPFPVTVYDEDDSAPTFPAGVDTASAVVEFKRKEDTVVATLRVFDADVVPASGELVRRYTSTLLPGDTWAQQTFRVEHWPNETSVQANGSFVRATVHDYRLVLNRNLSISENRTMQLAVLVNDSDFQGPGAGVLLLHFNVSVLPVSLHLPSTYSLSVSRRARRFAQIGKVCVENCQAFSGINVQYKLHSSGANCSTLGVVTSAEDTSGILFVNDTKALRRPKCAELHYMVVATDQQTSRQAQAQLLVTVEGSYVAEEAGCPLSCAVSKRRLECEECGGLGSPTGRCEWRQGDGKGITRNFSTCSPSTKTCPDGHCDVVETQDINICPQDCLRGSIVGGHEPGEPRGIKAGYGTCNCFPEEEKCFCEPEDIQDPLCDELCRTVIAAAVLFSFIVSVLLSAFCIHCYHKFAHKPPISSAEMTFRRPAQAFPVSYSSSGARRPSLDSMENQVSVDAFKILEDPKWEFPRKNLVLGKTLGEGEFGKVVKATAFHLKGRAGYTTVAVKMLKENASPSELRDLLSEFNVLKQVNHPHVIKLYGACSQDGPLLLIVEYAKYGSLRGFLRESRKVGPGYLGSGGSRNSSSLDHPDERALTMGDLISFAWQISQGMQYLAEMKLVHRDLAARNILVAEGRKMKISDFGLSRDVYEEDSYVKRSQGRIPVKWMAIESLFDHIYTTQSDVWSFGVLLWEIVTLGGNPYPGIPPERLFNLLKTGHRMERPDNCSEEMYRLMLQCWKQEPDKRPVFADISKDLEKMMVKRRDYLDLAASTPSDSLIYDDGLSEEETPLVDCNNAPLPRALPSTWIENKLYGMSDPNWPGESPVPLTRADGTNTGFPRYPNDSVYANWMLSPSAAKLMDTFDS
The experiment in a line: Cancer cell proliferation inhibition, MTS assay, 72 hours. The following applies: read-out: Ret^wt (Ba/F3) IC50. An outline of the steps:
(§2)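 Cells seeded at 3,000/well were cultured 24 h, then exposed 72 h to serially diluted compound from 50 μM top (0.05% DMSO). Viability was read by MTS/PMS at OD450 after 2 h at 37°C. IC50 was taken as 50% proliferation inhibition versus solvent control, from three data sets.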

Another assay has as its target T2, Ret^V804M (Ba/F3) (Homo sapiens, UniProt P07949, V804M, cells depend on it, form not given).
T2 construct: candidates are KIF5B, CCDC6, TEL (ETV6), or none (full-length RET)
The description is as above. The conditions noted are these: read-out: Ret^V804M (Ba/F3) IC50. An outline of the steps: as §2

A further assay has as its system Ret^Parental (Ba/F3). The assay is described as above. The following applies: Mus musculus, BaF3. An outline of the steps:
as §2

The next assay has as its system Huh7. Described as above. The following applies: Homo sapiens, Huh-7. The essentials:
as §2

For a further assay, the system named is SK-MEL-28. The description is as above. The conditions noted are these: Homo sapiens. The essentials: as §2
For another assay, the system named is RET (LC2/ad-CDC6). The assay is described as above. The conditions noted are these: 72 h. The essentials: as §2
The next assay relates to FYN (MCP-1). The description is as above. An outline of the steps: as §2
In a further assay the test system is MDA-MB-231. The experiment in a line: Real time cell proliferation, IncuCyte ZOOM, 72 hours. The conditions noted are these: Homo sapiens, MDA-MB-231, 72 h.
The test system of the next assay is FYN (FN). Kind of assay: Cancer cell proliferation inhibition, MTS assay, 72 hours. An outline of the steps: as §2
In general terms: Formazan colour is commonly taken as a measure of viable cells.

T2 sequence (P07949 whole entry V804M, form open): as the sequence (P07949 whole entry, change not shown) above, with V804M counted along it

By IC50 is commonly meant the concentration needed to halve the response being measured. On to `Cc1ccc(C(=O)Nc2ccc(CN3CCN(C)CC3)c(C(F)(F)F)c2)cc1C#Cc1cnc2c(Nc3cnn(C)c3)cccn12` [Example 1, 4-methyl-3-((8-((1-methyl-1H-pyrazol-4-yl)amino)imidazo[1,2-a]pyridin-3-yl)ethynyl)-N-(4-((4-methylpiperazin-1-yl)methyl)-3-(trifluoromethyl)phenyl)benzamide], for which the IC50 in the assay on GIST-T1/816 is 0.0354 µM; with GIST430/654, 0.332 µM; in the assay on GIST-T1 it was 0.0019 µM; in the assay with GIST430, 0.0368 µM; with M-NFS-60, 0.0646 µM; in the assay with Ret^Parental (Ba/F3), 1.21 µM. The half-inhibitory concentration (IC50) in the assay with Huh7 is 0.065 µM; in the assay with SK-MEL-28, 0.334 µM; in the assay on RET (LC2/ad-CDC6) it was less than 0.01 µM; in the assay with FYN (MCP-1), 0.73 µM; with MDA-MB-231, 0.187 µM. Moreover, the GI50 was 0.003 µM at Ret^wt (Ba/F3) and 0.005 µM on Ret^V804M (Ba/F3).

For `Cc1ccc(C(=O)Nc2cccc(C(F)(F)F)c2)cc1C#Cc1cnc2c(Nc3cnn(C4CCNCC4)c3)cccn12` [Example 11, 4-methyl-3-((8-((1-(piperidin-4-yl)-1H-pyrazol-4-yl)amino)imidazo[1,2-a]pyridin-3-yl)ethynyl)-N-(3-(trifluoromethyl)phenyl)benzamide], the IC50 in the assay with GIST-T1/816 was 0.0407 µM; in the assay on GIST430/654, 0.56 µM; in the assay with GIST-T1, 0.0008 µM; in the assay on GIST430, 0.0636 µM; in the assay with M-NFS-60 it was 0.0308 µM; in the assay with FYN (FN), less than 0.1 µM. For the same molecule, the IC50 with Ret^Parental (Ba/F3) was 2.4 µM; with Huh7, 1.22 µM; in the assay on SK-MEL-28 it was 1.46 µM; in the assay with FYN (MCP-1) it was less than 0.1 µM; in the assay with MDA-MB-231 it was 0.679 µM. For the same molecule, the GI50 came to 0.005 µM on Ret^wt (Ba/F3) and 0.098 µM at Ret^V804M (Ba/F3).

Regarding `Cc1ccc(NC(=O)C2(C(=O)Nc3ccc(F)cc3)CC2)cc1C#Cc1cnc2c(Nc3cnn(C(C)C)c3)cccn12` [Example 78], the half-maximal inhibitory concentration (IC50) is 0.672 µM in the assay on M-NFS-60; 5.12 µM in the assay with Huh7; 4.55 µM in the assay with SK-MEL-28; less than 10 µM in the assay on RET (LC2/ad-CDC6); 8.78 µM in the assay with MDA-MB-231.

In the case of `Cc1cn(-c2cc(NC(=O)c3ccc(C)c(C#Cc4cnc5c(Nc6cnn(C)c6)cccn45)c3)cc(C(F)(F)F)c2)cn1` [Example 12, 4-methyl-N-(3-(4-methyl-1H-imidazol-1-yl)-5-(trifluoromethyl)phenyl)-3-((8-((1-methyl-1H-pyrazol-4-yl)amino)imidazo[1,2-a]pyridin-3-yl)ethynyl)benzamide], the IC50 with GIST-T1/816 is 0.307 µM; with GIST430/654, 0.564 µM; in the assay on GIST-T1, 0.0123 µM; with GIST430, 0.0563 µM; with M-NFS-60, 0.247 µM; in the assay on FYN (FN), less than 0.1 µM. In addition, the IC50 is 0.147 µM in the assay with Huh7; greater than 10 µM in the assay on SK-MEL-28; less than 0.1 µM in the assay on RET (LC2/ad-CDC6); less than 0.1 µM with FYN (MCP-1); 1.19 µM in the assay on MDA-MB-231. Also, the GI50 on Ret^wt (Ba/F3) was determined as 0.017 µM; at Ret^V804M (Ba/F3), 0.054 µM.

On to `CCN1CCN(Cc2ccc(NC(=O)c3ccc(C)c(C#Cc4cnc5c(Nc6cnn(C)c6)cccn45)c3)cc2C(F)(F)F)CC1` [Example 8, N-(4-((4-ethylpiperazin-1-yl)methyl)-3-(trifluoromethyl)phenyl)-4-methyl-3-((8-((1-methyl-1H-pyrazol-4-yl)amino)imidazo[1,2-a]pyridin-3-yl)ethynyl)benzamide], for which the IC50 in the assay on M-NFS-60 was 0.0341 µM; in the assay with FYN (FN), less than 1 µM; in the assay with Ret^Parental (Ba/F3) it was 1.32 µM; with Huh7, 0.255 µM; in the assay with SK-MEL-28 it was 0.586 µM; in the assay on FYN (MCP-1), less than 1 µM. The molecule further registered an IC50 in the assay with MDA-MB-231 of 0.096 µM. In addition, the GI50 at Ret^wt (Ba/F3) turned out to be 0.002 µM; at Ret^V804M (Ba/F3) it was 0.01 µM.

For the origin of these results see patent US10870647B2, “Imidazopyridine derivative, method for preparing same, and pharmaceutical composition containing same as active ingredient for preventing or treating cancer” (DAEGU-GYEONGBUK MEDICAL INNOVATION FOUNDATION, priority 2016, dated 2020).
